According to article PMC10460801 (Advanced Pharmaceutical Bulletin, 2022):
Values after ≈ are worked out from the molar mass of the structure shown. Read-outs that look alike come from different tables or passages of the source.

Key:
[1] = Saturation shake-flask equilibrium solubility (48 h, 37 °C, UV-Vis); assay type: physicochemical; settings: for solubility thermodynamic at 48 h: thermodynamic from solid, read-out: Css mean
Procedure: In this study dissolution test has been performed in the presence of amino acids within various media, including phosphate buffer solution (pH = 7.4), hydrochloric acid buffer (pH = 1.2), citrate buffer (pH = 6 and pH = 4.2), and distilled water (pH = 6.5). Briefly, for each buffer, a suitable amount of components was transferred to a 250 mL volumetric flask and then diluted with distilled water to the volume line. Finally, the pH of the solution was examined and set using a pH meter (Germany, Metrohm SWISS mode).
The saturation shake-flask method has been used for solubility studies. In brief, buffer solutions containing different concentrations of each amino acid were prepared. An excess amount of each drug was weighed in capped vials, then buffers alone and mixed with amino acids were added to the vials and the pH change was set again. After that, capped vials were shaken for about 48 hours on a shaker incubator (Korea, HYSC) at speed of 150 RPM and 37^ᵒC to reach equilibrium and result a saturated solution. After 48 hours the upper phase was separated and centrifuged. Filtered samples were diluted with buffer before reading their UV-Vis absorbance. Then the amount of solubility was calculated using a calibration curve considering the dilution coefficient. Each of the experiments was repeated three times.

[2] = cited from earlier work
[3] = cited from earlier work; remark: listed apart in the source
[4] = Citrate buffer, pH 4.2 before incubation, 48 h, 37 °C
[5] = Citrate buffer, pH 6 before incubation, 48 h, 37 °C
[6] = Phosphate buffer, pH 7.4 before incubation, 48 h, 37 °C
[7] = aqueous buffer, Citrate buffer, pH 6 before incubation, 48 h, 37 °C
[8] = aqueous buffer, Phosphate buffer, pH 7.4 before incubation, 48 h, 37 °C
[9] = distilled water, pH 6.5, increasing GlucN
[10] = Water, pH 6.5 before incubation, 48 h, 37 °C
[11] = hydrochloric acid buffer, pH 1.2 before incubation, 48 h, 37 °C

Row | Measured Css Sample 1 [1, 5] [µg/mL] | Measured Css Sample 2 [1, 5] [µg/mL] | Measured Css Sample 3 [1, 5] [µg/mL] | Measured Css Sample 1 [1, 6] [µg/mL] | Measured Css Sample 2 [1, 6] [µg/mL] | Measured Css Sample 3 [1, 6] [µg/mL] | solubility thermodynamic at 48 h [1, 7] [µg/mL] | solubility thermodynamic at 48 h [1, 8] [µg/mL] | change of drug solubility in the presence of GlucN ([1]; citrate buffer, pH 6) | change of drug solubility in the presence of GlucN [1, 9] | Structure (SMILES) | also measured
1 | 140 | 130 | 150 | 1250 | 1320 | 1320 | 140 (≈ 0.423 mM) | 1290 (≈ 3.89 mM) | improved the solubility | does not change significantly | CN1C(C(=O)Nc2ccccn2)=C(O)c2ccccc2S1(=O)=O [PXM, Piroxicam] | Measured Css Sample 1 [1, 4]: 280 µg/mL; Measured Css Sample 2 [1, 4]: 230 µg/mL; Measured Css Sample 3 [1, 4]: 250 µg/mL; solubility thermodynamic at 48 h ([1]; aqueous buffer, Citrate buffer, pH 4.2 before incubation, 48 h, 37 °C): 250 µg/mL (≈ 0.754 mM); change of drug solubility in the presence of GlucN ([1]; citrate buffer, pH 4.2): enhanced; change of drug solubility in the presence of LYS ([1]; citrate buffer, pH 4.2, Figure 3B): did not follow a specific trend; change of drug solubility in the presence of ARG ([1]; phosphate buffer, concentration above molar ratio 1:1 PXM/ARG, Figure 3A): solubility goes down
2 |  |  |  |  |  |  |  |  |  |  | N[C@H]1C(O)O[C@H](CO)[C@@H](O)[C@@H]1O (stereo partly drawn) [GlucN, Glucosamine] | water solubility [2]: 320000 µg/mL (≈ 1790 mM)
3 | 5330 | 5050 | 5240 | 10510 | 10330 | 10510 | 5200 (≈ 25.2 mM) | 10400 (≈ 50.7 mM) | solubility increased | follows an upward pattern | CC(C)Cc1ccc(C(C)C(=O)O)cc1 (stereo not drawn) [IBU, Ibuprofen] | Measured Css Sample 1 [1, 10]: 3210 µg/mL; Measured Css Sample 2 [1, 10]: 3110 µg/mL; Measured Css Sample 3 [1, 10]: 3060 µg/mL; solubility thermodynamic at 48 h ([1]; distilled water, Water, pH 6.5 before incubation, 48 h, 37 °C): 3120 µg/mL (≈ 15.1 mM); Css mean [1, 11]: 800 µg/mL; Measured Css Sample 1 [1, 11]: 790 µg/mL; Measured Css Sample 2 [1, 11]: 820 µg/mL; Measured Css Sample 3 [1, 11]: 790 µg/mL; solubility thermodynamic at 48 h ([1]; simulated gastric fluid, hydrochloric acid buffer, pH 1.2 before incubation, 48 h, 37 °C): 800 µg/mL (≈ 3.88 mM); unionized fraction in the stomach [3]: 99.9%; intrinsic water solubility ([2]; free acid): ~60 µg/mL
